Laboratory results: article PMC5601486, “Identification of 4-phenylquinolin-2(1H)-one as a specific allosteric inhibitor of Akt” (Scientific Reports, 2017)

Experiments:
EGFR(L861Q) = test: KINOMEscan; conditions: 50000 nM
Description: KINOMEscan™ selectivity screen
(§5) Briefly, Kinase-tagged T7 phage strains were grown in parallel in an E. coli host derived from the BL21 strain. E. coli were grown to log-phase and infected with T7 phage from a frozen stock and incubated with shaking at 32°C until lysis (90-150 minutes). The kinases were produced in HEK-293 cells and subsequently tagged with DNA for qPCR detection. Streptavidin-coated magnetic beads were treated with biotinylated small molecule ligands to generate affinity resins for kinase
(§6) inhibitor or DMSO control was performed in polypropylene 384-well plates for 1 hr at room temperature. After wash with PBS buffer containing 0.05% Tween 20, the beads were incubated in elution buffer (PBS containing 0.05 % Tween 20 and 0.5 μM non-biotinylated affinity ligand) for 30 minutes at room temperature. The kinase concentration in the eluates was measured by qPCR.

MLK1 = test: KINOMEscan; conditions: 50000 nM
Description: KINOMEscan™ selectivity screen
(§7) The assay was perfor med at DiscoveRx Corporation according the methods published previously5. Briefly, Kinase-tagged T7 phage strains were grown in parallel in an E. coli host derived from the BL21 strain. E. coli were grown to log-phase and infected with T7 phage from a frozen stock and incubated with shaking at 32°C until lysis (90-150 minutes). The kinases were produced in HEK-293 cells and subsequently tagged with DNA for qPCR detection. Streptavidin-coated magnetic beads were treated with biotinylated small molecule ligands to generate affinity resins for kinase
as §6

FoxO1 phosphorylation = test: Western blot of Akt downstream signaling; assay type: cell-based, Mouse; conditions: Neuro 2A cells, dose-dependent
Description: (§1) Neuro 2A cells were seeded in 12-well plates in DMEM containing 5% FBS for 24 hr.
(§2) After overnight serum starvation (in 0% FBS DMEM), cells were incubated for 30 min at 37 °C with G7 or LY294002 or Torin 1 (Sigma Aldrich) at various concentrations, or DMSO control. IGF-1 was added to each well at a final concentration of 100 ng/mL. After 30-min incubation cells were washed with cold PBS and lysed with 50 µL lysis buffer containing 1% Triton X-100 and protease/phosphatase inhibitors (Cell Signaling Technology) or RIPA buffer (Santa Cruz Biotech). Samples were electrophoresed in 4–12% Bis-Tris gels (Life Technologies) at 150 V using MOPS SDS running buffer. Proteins were transferred electrophoretically to a PVDF or nitrocellulose membrane. For detection of cleaved […]
(§3) caspase 3 a Trans-Blot Turbo Transfer System (Bio-Rad, 25 V for 25 min) with PVDF membrane were used. […]
(§4) anti- GAPDH (14C10) antibody (#2118) (all antibodies were from Cell Signaling Technology unless indicated, 1:1000 dilution was used) at 4°C overnight, washed three times with TBS-T, then incubated with peroxidase-conjugated secondary antibody (Sigma-Aldrich) for 1 hr at room temperature. […] Band intensity was quantitated using Kodak 1D imaging analysis software. […]

GSK-3β phosphorylation = test: Western blot of Akt downstream signaling; assay type: cell-based, Mouse; conditions: Neuro 2A cells, dose-dependent
Description: as §1, §2, §3, §4

CSNK1G2 = test: KINOMEscan; conditions: 50000 nM
Description: KINOMEscan™ selectivity screen
The kinases were produced in HEK-293 cells and subsequently tagged with DNA for qPCR detection. Streptavidin-coated magnetic beads were treated with biotinylated small molecule ligands to generate affinity resins for kinase
as §6

[1] = test system: TYK2(JH2domain-pseudokinase); test: KINOMEscan; conditions: 50000 nM
Description: KINOMEscan™ selectivity screen
as §7, §6

[2] = test system: RSK4(Kin.Dom.2-C-terminal); test: KINOMEscan; conditions: 50000 nM
Description: KINOMEscan™ selectivity screen
as §7, §6

ERK1/2 = test: Western blot of ERK1/2 phosphorylation; assay type: cell-based, Mouse; conditions: Neuro 2A cells
Description: as §1, §2, §3, §4

LNCaP cells = test: MTS cell proliferation assay; assay type: cell-based; conditions: 1 day, 40% confluent
Description: Neuro 2A cells or NIH/3T3 cells (ATCC) were seeded at various confluency in a 96-well plate in 100 µL DMEM containing 5% FBS or 10% FBS with 1% penicillin streptomucin, respectively, at 37 °C in a 5% CO2 and 95% humidity incubator for 18 hr. To each well 1 µL inhibitor with various concentrations or DMSO was added. The final concentrations of the tested inhibitors were 0, 5, 10, 20, 40 and 80 µM for G7 and LY, and 0, 5, 10, 20, 40 and 80 nM for Torin1, based on their respective IC50 values (~µM for G7 and LY and ~ nM for Torin 1). After 24 hr, 20 µL of CellTiter 96® AQueous One Solution Reagent (Promega) were added. The plate was placed in the incubator for 2 h and absorbance at 490 nm was measured with a Synergy HT Microplate Reader (Bio-Tek).
Fig. S8. Effect of G7 on proliferation of LNCaP cells. Cells that were 40% confluent in RPMI-1640 medium containing 10% FBS were treated with inhibitors for 1 day and subjected to MTS assays. *, µM for both G7 and LY and nM for Torin1. Data represent means ± SEM (n=3). G7, 4-phenylquinolin-2(1H)-one, LY, LY294002.

CDK4 = test: KINOMEscan; conditions: 50000 nM
Description: KINOMEscan™ selectivity screen
as §5, §6

FGFR4 = test: KINOMEscan; conditions: 50000 nM
Description: KINOMEscan™ selectivity screen
(§8) The assay was perfor med at DiscoveRx Corporation according the methods published previously5. […] The kinases were produced in HEK-293 cells and subsequently tagged with DNA for qPCR detection. Streptavidin-coated magnetic beads were treated with biotinylated small molecule ligands to generate affinity resins for kinase
as §6

GAK = test: KINOMEscan; conditions: 50000 nM
Description: KINOMEscan™ selectivity screen
as §8, §6

ROCK1 = test: KINOMEscan; conditions: 50000 nM
Description: KINOMEscan™ selectivity screen
as §5, §6

TTK = test: KINOMEscan; conditions: 50000 nM
Description: KINOMEscan™ selectivity screen
as §5, §6

NIM1 = test: KINOMEscan; conditions: 50000 nM
Description: KINOMEscan™ selectivity screen
as §5, §6

CAMK2B = test: KINOMEscan; conditions: 50000 nM
Description: KINOMEscan™ selectivity screen
as §5, §6

SGK = test: KINOMEscan; conditions: 50000 nM
Description: KINOMEscan™ selectivity screen
as §7, §6

PRKCD = test: KINOMEscan; conditions: 50000 nM
Description: KINOMEscan™ selectivity screen
as §7, §6

ICK = test: KINOMEscan; conditions: 50000 nM
Description: KINOMEscan™ selectivity screen
as §5, §6

AXL = test: KINOMEscan; conditions: 50000 nM
Description: KINOMEscan™ selectivity screen
as §7, §6

DMPK = test: KINOMEscan; conditions: 50000 nM
Description: KINOMEscan™ selectivity screen
as §7, §6

GSK3B = test: KINOMEscan; conditions: 50000 nM
Description: KINOMEscan™ selectivity screen
as §5, §6

PCTK1 = test: KINOMEscan; conditions: 50000 nM
Description: KINOMEscan™ selectivity screen
as §5, §6

TLK2 = test: KINOMEscan; conditions: 50000 nM
Description: KINOMEscan™ selectivity screen
as §5, §6

TNK1 = test: KINOMEscan; conditions: 50000 nM
Description: KINOMEscan™ selectivity screen
as §7, §6

MRCKB = test: KINOMEscan; conditions: 50000 nM
Description: as §5, §6

MST2 = test: KINOMEscan; conditions: 50000 nM
Description: KINOMEscan™ selectivity screen
as §8, §6

p38-gamma = test: KINOMEscan; conditions: 50000 nM
Description: KINOMEscan™ selectivity screen
as §5, §6

PIK3CA(I800L) = test: KINOMEscan; conditions: 50000 nM
Description: KINOMEscan™ selectivity screen
as §7, §6

SRPK1 = test: KINOMEscan; conditions: 50000 nM
Description: KINOMEscan™ selectivity screen
as §7, §6

In the case of `Oc1cc(-c2ccccc2)c2ccccc2n1` [G7, 4-phenylquinolin-2(1H)-one], the “Percent Control” value (EGFR(L861Q)) is reported as 71%, the “Percent Control” value (MLK1) is reported as 82% and the “phosphorylation of FoxO1” value (FoxO1 phosphorylation) is reported as “decreased”. For the same compound, the “phosphorylation of GSK-3β” value (GSK-3β phosphorylation) was “decreased”, the “Percent Control” value (CSNK1G2) was 74% and the “Percent Control” value [1] was 15%. For the same compound, the “Percent Control” value [2] was 38%, the “phosphorylation of ERK1/2” value (ERK1/2) was “neither inhibited” and the “proliferation of LNCaP prostate cancer cells” value (LNCaP cells) was “inhibited the proliferation”. The “Percent Control” value (CDK4) was 100%, the “Percent Control” value (FGFR4) was 96% and the “Percent Control” value (GAK) was 56%. The “Percent Control” value (ROCK1) was 69%, the “Percent Control” value (TTK) was 24% and the “Percent Control” value (NIM1) was 90%. For the same compound, the “Percent Control” value (CAMK2B) was 92%, the “Percent Control” value (SGK) was 66% and the “Percent Control” value (PRKCD) was 100%. The “Percent Control” value (ICK) was 71%, the “Percent Control” value (AXL) was 42% and the “Percent Control” value (DMPK) was 100%. For the same compound, the “Percent Control” value (GSK3B) was 68%, the “Percent Control” value (PCTK1) was 91% and the “Percent Control” value (TLK2) was 89%. The “Percent Control” value (TNK1) was 100%, the “Percent Control” value (MRCKB) was 84% and the “Percent Control” value (MST2) was 76%. For the same compound, the “Percent Control” value (p38-gamma) was 100%, the “Percent Control” value (PIK3CA(I800L)) was 95% and the “Percent Control” value (SRPK1) was 47%.
